Measured values taken from patent US11679107B2 (Eisai R&D Management Co., Ltd., priority 2018, dated 2023).
Like-named read-outs stand apart in the source and are kept apart here.

Key:
[1] = system: Ad2 variant pre-mRNAs spliced in HeLa S3 nuclear extracts; assay: In vitro splicing assay (IVS), RT-qPCR of spliced product; format: biochemical; conditions: for IC50: geometric mean; for Ratio Ad2.1/2.2: ratio of IVS IC50 Ad2.1 to Ad2.2
In short: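 Read-out is one-step TaqMan RT-qPCR of spliced Ad2 mRNA with Ftz as reference, normalized to DMSO and fit by non-linear regression. Reactions held HeLa S3 nuclear extract, 2 ng Ad2-derived pre-mRNA and test compound, with 15 min preincubation. Splicing was started with ATP-containing activation buffer and run 90 min at 30 °C.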

[2] = system: NCI-H1568 cells (high MCL1); assay: Cell proliferation and viability, CellTiter-Glo, 72 hours; format: cell-based; conditions: for GI50: geometric mean
In short: (§1)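 RPMI-1640/10% FBS (Panc: + insulin, FBS 15%); 11-pt half-log dose, ~10 μM-100 pM, 0.1% DMSO; 37° C, 5% CO2; ATP luminescence read; % inhibition vs T0 and vehicle, −100% cidal to 100% uninhibited growth.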

[3] = system: Panc 05.04 cells (SF3b K700E mutant); assay: as above; format: cell-based; conditions: for GI50: geometric mean
In short: as §1

[4] = molecular target: T1, SF3b complexes (Homo sapiens, UniProt O75533+Q7RTV0); assay: Scintillation proximity assay (SPA) with [3H]-labelled pladienolide probe; format: binding; conditions: SF3B1 (WT); geometric mean; read-out: SPA-ATS GMean IC50 (nM) SF3B1 (WT)
T1 construct: endogenous in cells; host or cells: Nuclear extracts; A HeLa S3 extract preparation is described for the in vitro splicing assay
In short: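 SF3b complexes captured from nuclear extracts on anti-SF3B1 antibody SPA beads; test compounds pre-incubated 30 min before 2.5 nM [3H]-pladienolide probe added, then 30 min incubation. Bound probe read by scintillation; values from non-linear regression of concentration–response curves.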

[5] = Ad2.1 pre-mRNA substrate, read-out: qPCR-IVS-ATS GMean IC50 (nM) Ad2.1
[6] = Ad2.2 pre-mRNA substrate, read-out: qPCR-IVS-ATS GMean IC50 (nM) Ad2.2
[7] = NCI-H1568, read-out: CTGlo-ATS GMean GI50 (nM) 72 h NCIH1568.1, NCIH1568.1 cells, 72 h
[8] = NCIH1568.1 cells, 72 h, −100% cidal, 0% static, 100% maximal growth
[9] = PANC0504.1 cells, 72 h, −100% cidal, 0% static, 100% maximal growth
[10] = Panc 05.04, read-out: CTGlo-ATS GMean GI50 (nM) 72 h PANC0504.1, PANC0504.1 cells, 72 h
[11] = NCI-H1568, 72 h, read-out: CTGlo-ATS GMean GI50 (nM) 72 h NCIH1568.1, NCIH1568.1 cells, 72 h
[12] = Panc 05.04, 72 h, read-out: CTGlo-ATS GMean GI50 (nM) 72 h PANC0504.1, PANC0504.1 cells, 72 h
[13] = 72 h, NCIH1568.1, -100% = cidal, 0% = static, 100% = uninhibited growth
[14] = NCI-H1568, read-out: CTGlo-ATS GMean GI50 (nM) 72 h NCIH1568.1, 72 h, NCIH1568.1
[15] = 72 h, PANC0504.1, -100% = cidal, 0% = static, 100% = uninhibited growth
[16] = Panc 05.04, read-out: CTGlo-ATS GMean GI50 (nM) 72 h PANC0504.1, 72 h, PANC0504.1

| SMILES | IC50 [1, 5] [nM] | IC50 [1, 6] [nM] | GI50 [2, 7] [nM] | CTGlo-ATS Mean MinResponse % 72 h NCIH1568.1 [2, 8] [%] | CTGlo-ATS Mean MinResponse % 72 h PANC0504.1 [3, 9] [%] | GI50 [3, 10] [nM] | IC50 [4] [nM] | GI50 [2, 11] [nM] | GI50 [3, 12] [nM] | Ratio Ad2.1/2.2 [1] | CTGlo-ATS Mean MinResponse % 72 h NCIH1568.1 [2, 13] [%] | GI50 [2, 14] [nM] | CTGlo-ATS Mean MinResponse % 72 h PANC0504.1 [3, 15] [%] | GI50 [3, 16] [nM] |
| --- | --- | --- | --- | --- | --- | --- | --- | --- | --- | --- | --- | --- | --- | --- |
| C/C(=C\c1cc(F)cc(N2CCOCC2)c1)[C@H]1OC(=O)C[C@H](O)CC[C@H](C)[C@@H](OC(=O)N2CCN(CC(F)(F)F)CC2)/C=C/[C@@H]1C [Compound 92, [(2S,3S,4E,6R,7S,10R)-2-[(E)-1-(3-fluoro-5-morpholin-4-ylphenyl)prop-1-en-2-yl]-10-hydroxy-3,7-dimethyl-12-oxo-1-oxacyclododec-4-en-6-yl] 4-(2,2,2-trifluoroethyl)piperazine-1-carboxylate] | > 25000 | 664 | 401 | −3.918 | −37.359 | 433 | 80 | – | – | – | – | – | – | – |
| COCCC(=O)N1CCN(c2cc(F)cc(/C=C(\C)[C@H]3OC(=O)C[C@H](O)CC[C@H](C)[C@@H](OC(=O)N4CCN(C)CC4)/C=C/[C@@H]3C)c2)CC1 [Compound 134] | 26.5 | 13.3 | 3.92 | −79.743 | −92.570 | 4.11 | 2.06 | – | – | – | – | – | – | – |
| C/C(=C\c1cc(F)cc(N2CCC[C@H]2C)c1)[C@H]1OC(=O)C[C@H](O)CC[C@H](C)[C@@H](OC(=O)N2CCN(C)CC2)/C=C/[C@@H]1C [Compound 41] | 221 | 39.2 | – | −77.375 | −82.009 | – | 8.26 | 21.4 | 15.8 | – | – | – | – | – |
| C/C(=C\c1cc(F)c2nn(CC3CC3)nc2c1)[C@H]1OC(=O)C[C@H](O)CC[C@H](C)[C@@H](OC(=O)N2CCN(C)CC2)/C=C/[C@@H]1C [Compound 138] | > 25000 | 57.5 | 70.3 | −80.330 | −85.916 | 120 | 8.7 | – | – | – | – | – | – | – |
| C/C(=C\c1cccc(S(=O)(=O)N2CCN(C=O)CC2)c1)[C@H]1OC(=O)C[C@H](O)CC[C@H](C)[C@@H](OC(=O)N2CCN(C)CC2)/C=C/[C@@H]1C [Compound 94] | 5570 | 37.5 | 35.5 | −40.948 | −94.671 | 30.4 | 7.48 | – | – | – | – | – | – | – |
| C/C(=C\c1ccc2ccnc(O)c2c1)[C@H]1OC(=O)C[C@H](O)CC[C@H](C)[C@@H](OC(=O)N2CCN(C)CC2)/C=C/[C@@H]1C [Compound 127] | > 25000 | 452 | – | −18.734 | 11.995 | – | 19.1 | 835 | 1070 | – | – | – | – | – |
| C/C(=C\c1ccc2c(F)nn(CC3CC3)c2c1)[C@H]1OC(=O)C[C@H](O)CC[C@H](C)[C@@H](OC(=O)N2CCN(C)CC2)/C=C/[C@@H]1C [Compound 133] | 1670 | 92.5 | 17.7 | −69.167 | −94.957 | 25.6 | 6.99 | – | – | – | – | – | – | – |
| C/C(=C\c1cc(F)cc(N2CC[C@H](NS(C)(=O)=O)C2)c1)[C@H]1OC(=O)C[C@H](O)CC[C@H](C)[C@@H](OC(=O)N2CCN(C)CC2)/C=C/[C@@H]1C [Compound 217, [(2S,3S,4E,6R,7S,10R)-2-[(E)-1-[3-fluoro-5-[(3S)-3-(methanesulfonamido)pyrrolidin-1-yl]phenyl]prop-1-en-2-yl]-10-hydroxy-3,7-dimethyl-12-oxo-1-oxacyclododec-4-en-6-yl] 4-methylpiperazine-1-carboxylate] | 18.4 | 16.6 | – | – | – | – | 3.18 | – | – | 1.107 | −71.339 | 13.8 | −91.288 | 15 |
| C/C(=C\c1cc(C)cc(N2CCOCC2)c1)[C@H]1OC(=O)C[C@H](O)CC[C@H](C)[C@@H](OC(=O)N2CCN(C)CC2)/C=C/[C@@H]1C [Compound 18] | 77.5 | 34.3 | 26.1 | −60.339 | −83.683 | 19.9 | 16.7 | – | – | – | – | – | – | – |
| C/C(=C\c1cc(F)c2cn(C3CCOCC3)nc2c1)[C@H]1OC(=O)C[C@H](O)CC[C@H](C)[C@@H](OC(=O)N2CCN(C)CC2)/C=C/[C@@H]1C [Compound 117] | > 25000 | 69.6 | 79.8 | −55.709 | −95.049 | 50.2 | 9.76 | – | – | – | – | – | – | – |
| C/C(=C\c1cc(F)cc(N2CCOCC2)c1)[C@H]1OC(=O)C[C@H](O)CC[C@H](C)[C@@H](OC(=O)NCCN(C)C)/C=C/[C@@H]1C [Compound 242, [(2S,3S,4E,6R,7S,10R)-2-[(E)-1-(3-fluoro-5-morpholin-4-ylphenyl)prop-1-en-2-yl]-10-hydroxy-3,7-dimethyl-12-oxo-1-oxacyclododec-4-en-6-yl] N-[2-(dimethylamino)ethyl]carbamate] | 7150 | 62.1 | – | – | – | – | 15.3 | – | – | 115.051 | −65.744 | 180 | −92.786 | 68.9 |
| C/C(=C\c1cc(F)cc(N2CCN(S(C)(=O)=O)CC2)c1)[C@H]1OC(=O)C[C@H](O)CC[C@H](C)[C@@H](OC(=O)N2CCN(C)CC2)/C=C/[C@@H]1C [Compound 58] | 30.1 | 22 | 7 | −70.067 | −91.132 | 6.97 | 6.54 | – | – | – | – | – | – | – |
| C/C(=C\c1cc(F)cc(N2CC[C@@H](O)C2)c1)[C@H]1OC(=O)C[C@H](O)CC[C@H](C)[C@@H](OC(=O)N2CCN(C)CC2)/C=C/[C@@H]1C [Compound 34] | 56.5 | 26.9 | – | −55.438 | −85.656 | – | 3.18 | 9.46 | 14 | – | – | – | – | – |
| C/C(=C\c1cc(F)cc(N(C)C2CCN(S(C)(=O)=O)CC2)c1)[C@H]1OC(=O)C[C@H](O)CC[C@H](C)[C@@H](OC(=O)N2CCN(C)CC2)/C=C/[C@@H]1C [Compound 174] | 13.1 | 10.7 | 3.86 | −92.525 | −80.529 | 6.04 | 3.14 | – | – | – | – | – | – | – |
| C/C(=C\c1cc(F)c2cnn(CC(=O)N3CCCC3)c2c1)[C@H]1OC(=O)C[C@H](O)CC[C@H](C)[C@@H](OC(=O)N2CCN(C)CC2)/C=C/[C@@H]1C [Compound 129] | 32 | 15.6 | 4.73 | −70.909 | −94.183 | 11.3 | 4.38 | – | – | – | – | – | – | – |
| C/C(=C\c1cccc(N2CCN(C)CC2)c1)[C@H]1OC(=O)C[C@H](O)CC[C@H](C)[C@@H](OC(=O)N2CCN(C)CC2)/C=C/[C@@H]1C [Compound 2] | 29.3 | 24.8 | 40.6 | −70.665 | −76.626 | 30.3 | 14.7 | – | – | – | – | – | – | – |
| CN[C@H]1CCN(c2cc(F)cc(/C=C(\C)[C@H]3OC(=O)C[C@H](O)CC[C@H](C)[C@@H](OC(=O)N4CCN(C)CC4)/C=C/[C@@H]3C)c2)C1 [Compound 39] | 63.1 | 32 | 45.6 | −97.412 | −89.747 | 50.1 | 26 | – | – | – | – | – | – | – |
